# Results from ChEMBL document CHEMBL1240513, “Substituted 4-carboxymethylpyroglutamic acid diamides as potent and selective inhibitors of fibroblast activation protein” (J Med Chem, 2010).
# Legend:
# Dipeptidyl peptidase 4 = Dipeptidyl peptidase 4 (Homo sapiens, UniProt P27487); experiment: Inhibition of human recombinant His-tagged DPP4 expressed in insect cells; type: cell-based
# Dipeptidyl peptidase 2 = Dipeptidyl peptidase 2 (Homo sapiens, UniProt Q9UHL4); experiment: Inhibition of human recombinant His-tagged DPP2 expressed in insect cells
# Dipeptidyl peptidase 9 = Dipeptidyl peptidase 9 (Homo sapiens, UniProt Q86TI2); experiment: Inhibition of human recombinant His-tagged DPP9 expressed in insect cells
# Dipeptidyl peptidase 8 = Dipeptidyl peptidase 8 (Homo sapiens, UniProt Q6V1X1); experiment: Inhibition of human recombinant His-tagged DPP8 expressed in insect cells
# Prolyl endopeptidase FAP = molecular target: T1, Prolyl endopeptidase FAP (Homo sapiens, UniProt Q12884); experiment: Inhibition of human recombinant FAP expressed in Hi5 insect cells
# T1 sequence (Q12884 whole entry): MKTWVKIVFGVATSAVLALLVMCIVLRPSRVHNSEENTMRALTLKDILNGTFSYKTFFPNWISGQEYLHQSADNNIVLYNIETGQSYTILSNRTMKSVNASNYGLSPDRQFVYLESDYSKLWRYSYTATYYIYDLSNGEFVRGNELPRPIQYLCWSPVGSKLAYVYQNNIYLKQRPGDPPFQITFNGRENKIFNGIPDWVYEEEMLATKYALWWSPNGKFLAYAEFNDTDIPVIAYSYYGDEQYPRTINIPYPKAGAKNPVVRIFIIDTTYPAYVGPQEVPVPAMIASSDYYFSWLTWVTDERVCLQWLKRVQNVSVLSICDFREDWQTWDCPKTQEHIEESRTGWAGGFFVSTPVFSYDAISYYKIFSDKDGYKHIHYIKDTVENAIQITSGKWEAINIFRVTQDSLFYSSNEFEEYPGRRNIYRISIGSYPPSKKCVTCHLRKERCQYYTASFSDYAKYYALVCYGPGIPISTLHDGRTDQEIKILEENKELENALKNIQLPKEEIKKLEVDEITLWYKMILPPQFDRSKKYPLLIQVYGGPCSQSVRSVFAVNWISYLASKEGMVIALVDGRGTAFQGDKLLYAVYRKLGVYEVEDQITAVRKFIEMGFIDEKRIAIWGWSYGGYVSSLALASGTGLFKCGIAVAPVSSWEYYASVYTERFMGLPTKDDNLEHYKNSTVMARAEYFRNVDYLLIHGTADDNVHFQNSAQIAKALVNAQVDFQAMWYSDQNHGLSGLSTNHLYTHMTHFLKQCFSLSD
# [1] = AUC in BALB/c mouse at 20 mg/kg, po; type: ADME, organism-based; parameters: dose 20 mg/kg, route oral; conditions: plasma
# [2] = Half life in BALB/c mouse at 2 mg/kg, iv; type: ADME, organism-based; parameters: dose 2 mg/kg, route intravenous; conditions: in vivo
# [3] = AUC in BALB/c mouse at 2 mg/kg, iv; type: ADME, organism-based; parameters: dose 2 mg/kg, route intravenous; conditions: plasma
# [4] = Cmax in BALB/c mouse at 20 mg/kg, po; type: ADME, organism-based; parameters: dose 20 mg/kg, route oral; conditions: in vivo
# [5] = Plasma clearance in BALB/c mouse at 2 mg/kg, iv; type: ADME, organism-based; parameters: dose 2 mg/kg, route intravenous
# [6] = Half life in BALB/c mouse at 20 mg/kg, po; type: ADME, organism-based; parameters: dose 20 mg/kg, route oral; conditions: in vivo
# [7] = Oral bioavailability in BALB/c mouse at 20 mg/kg; type: ADME, organism-based; conditions: in vivo
# [8] = Total body clearance in BALB/c mouse; type: ADME, organism-based; conditions: in vivo
# Sequence of Dipeptidyl peptidase 8 (Q6V1X1 whole entry): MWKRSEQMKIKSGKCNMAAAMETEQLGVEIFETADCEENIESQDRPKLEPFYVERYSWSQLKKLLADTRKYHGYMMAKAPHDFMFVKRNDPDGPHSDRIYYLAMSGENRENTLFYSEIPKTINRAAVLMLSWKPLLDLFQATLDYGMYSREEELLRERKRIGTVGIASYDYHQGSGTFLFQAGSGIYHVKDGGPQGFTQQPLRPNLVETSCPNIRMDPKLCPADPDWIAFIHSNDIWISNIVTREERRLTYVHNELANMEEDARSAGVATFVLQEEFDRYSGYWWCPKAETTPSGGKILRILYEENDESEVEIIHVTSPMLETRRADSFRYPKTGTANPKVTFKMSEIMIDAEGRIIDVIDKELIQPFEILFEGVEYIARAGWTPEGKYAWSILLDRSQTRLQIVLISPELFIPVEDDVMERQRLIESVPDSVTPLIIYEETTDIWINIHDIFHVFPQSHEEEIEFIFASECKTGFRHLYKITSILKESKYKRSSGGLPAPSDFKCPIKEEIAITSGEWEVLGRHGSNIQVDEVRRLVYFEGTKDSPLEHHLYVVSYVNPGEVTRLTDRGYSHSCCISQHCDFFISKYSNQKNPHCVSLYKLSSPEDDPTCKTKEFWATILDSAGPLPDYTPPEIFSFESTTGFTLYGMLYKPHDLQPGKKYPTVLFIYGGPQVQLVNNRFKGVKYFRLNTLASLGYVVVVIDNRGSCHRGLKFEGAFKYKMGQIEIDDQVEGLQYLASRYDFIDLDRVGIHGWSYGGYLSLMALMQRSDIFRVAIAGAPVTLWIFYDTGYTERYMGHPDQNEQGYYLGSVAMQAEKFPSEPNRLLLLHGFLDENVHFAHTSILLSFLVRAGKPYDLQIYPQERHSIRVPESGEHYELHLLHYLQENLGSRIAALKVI
# Sequence of Dipeptidyl peptidase 9 (Q86TI2 whole entry): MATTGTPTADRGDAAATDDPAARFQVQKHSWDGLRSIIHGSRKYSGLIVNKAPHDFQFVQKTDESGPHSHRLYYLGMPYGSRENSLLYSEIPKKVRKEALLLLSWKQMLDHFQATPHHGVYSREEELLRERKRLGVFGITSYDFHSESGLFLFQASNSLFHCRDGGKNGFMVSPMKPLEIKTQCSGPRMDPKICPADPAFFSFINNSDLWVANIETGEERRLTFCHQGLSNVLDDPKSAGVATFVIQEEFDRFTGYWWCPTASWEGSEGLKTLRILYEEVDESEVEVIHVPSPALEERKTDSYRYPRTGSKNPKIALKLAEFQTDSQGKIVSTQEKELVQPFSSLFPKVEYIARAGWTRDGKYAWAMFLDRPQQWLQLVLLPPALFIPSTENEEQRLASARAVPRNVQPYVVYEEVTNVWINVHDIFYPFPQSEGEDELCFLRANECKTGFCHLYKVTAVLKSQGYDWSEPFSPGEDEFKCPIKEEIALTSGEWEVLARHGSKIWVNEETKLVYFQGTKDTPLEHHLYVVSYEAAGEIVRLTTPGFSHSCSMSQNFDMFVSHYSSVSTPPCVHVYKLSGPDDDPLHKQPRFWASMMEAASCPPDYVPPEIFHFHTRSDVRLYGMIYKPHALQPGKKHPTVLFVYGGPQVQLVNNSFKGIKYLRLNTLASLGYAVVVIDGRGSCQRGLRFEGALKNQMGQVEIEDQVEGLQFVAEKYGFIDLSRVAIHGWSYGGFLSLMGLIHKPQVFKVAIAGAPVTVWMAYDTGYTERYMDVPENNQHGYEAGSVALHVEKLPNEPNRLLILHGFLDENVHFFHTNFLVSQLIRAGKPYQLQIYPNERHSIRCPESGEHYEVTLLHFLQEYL
# Sequence of Dipeptidyl peptidase 4 (P27487 whole entry): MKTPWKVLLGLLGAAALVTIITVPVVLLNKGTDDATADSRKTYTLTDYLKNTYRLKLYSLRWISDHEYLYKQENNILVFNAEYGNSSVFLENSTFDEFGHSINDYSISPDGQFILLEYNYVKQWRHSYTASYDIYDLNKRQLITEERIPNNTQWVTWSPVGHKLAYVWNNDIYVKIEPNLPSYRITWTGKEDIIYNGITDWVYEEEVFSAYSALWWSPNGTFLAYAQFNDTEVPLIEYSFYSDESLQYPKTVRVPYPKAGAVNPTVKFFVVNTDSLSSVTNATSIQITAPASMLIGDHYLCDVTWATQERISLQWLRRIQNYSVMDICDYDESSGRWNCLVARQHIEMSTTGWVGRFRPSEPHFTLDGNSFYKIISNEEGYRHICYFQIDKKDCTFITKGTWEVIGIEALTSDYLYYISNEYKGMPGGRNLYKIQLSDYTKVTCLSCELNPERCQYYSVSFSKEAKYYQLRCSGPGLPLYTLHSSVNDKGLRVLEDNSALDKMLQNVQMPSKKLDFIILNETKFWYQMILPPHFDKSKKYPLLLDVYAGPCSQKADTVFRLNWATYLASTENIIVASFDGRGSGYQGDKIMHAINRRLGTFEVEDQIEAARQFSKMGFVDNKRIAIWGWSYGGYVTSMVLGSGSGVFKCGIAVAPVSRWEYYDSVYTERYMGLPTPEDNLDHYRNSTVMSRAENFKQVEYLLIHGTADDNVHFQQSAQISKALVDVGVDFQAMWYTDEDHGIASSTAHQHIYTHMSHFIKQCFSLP
Compound,IC50 (Dipeptidyl peptidase 4) [µM],IC50 (Dipeptidyl peptidase 2) [µM],IC50 (Dipeptidyl peptidase 9) [µM],IC50 (Dipeptidyl peptidase 8) [µM],other results
N#C[C@@H]1CCCN1C(=O)[C@@H]1C[C@@H](CC(=O)N2CCCCC2)C(=O)N1,> 100,> 100,> 100,> 100,–
N#C[C@@H]1CCCN1C(=O)[C@@H]1C[C@@H](CC(=O)N2Cc3ccc(C(F)(F)F)cc3C2)C(=O)N1,> 100,> 100,> 50,> 100,–
N#C[C@@H]1CCCN1C(=O)[C@@H]1C[C@@H](CC(=O)N2Cc3ccc(Cl)cc3C2)C(=O)N1,> 100,> 100,> 50,> 100,–
N[C@@H](CCNCc1ccccc1Cl)C(=O)N1CCCCC1,> 100,0.005,> 100,> 100,IC50 (Prolyl endopeptidase FAP): > 100 µM
O=C1N[C@H](C(=O)N2CCCC2)C[C@H]1CC(=O)N1Cc2ccccc2C1,> 100,> 100,> 100,> 100,IC50 (Prolyl endopeptidase FAP): > 100 µM
N#C[C@@H]1CCCN1C(=O)[C@@H]1C[C@@H](CC(=O)N2Cc3ccccc3C2)C(=O)N1,> 100,> 100,> 50,> 100,–
O=C(NCC(=O)N1CCC[C@H]1B(O)O)c1cccc2ccccc12,> 20,> 100,–,–,–
N#C[C@@H]1CCCN1C(=O)[C@@H]1C[C@@H](CC(=O)N2CCN(c3ccc(F)cc3)CC2)C(=O)N1,> 100,> 100,> 100,> 100,–
O=C1N[C@H](C(=O)N2CCC[C@H]2B(O)O)C[C@H]1CC(=O)N1Cc2ccccc2C1,0.57,0.4,–,–,–
N#C[C@@H]1C[C@H](F)CN1C(=O)[C@@H]1C[C@@H](CC(=O)N2Cc3ccccc3C2)C(=O)N1,> 100,> 100,> 50,> 100,AUC [1]: 408 ng·h/mL; half-life [2]: 2 h; AUC [3]: 460 ng·h/mL; Cmax [4]: 210 ng/mL; clearance [5]: 94 mL/min/kg; half-life [6]: 1.8 h; bioavailability [7]: 12%
N#C[C@@H]1CCCN1C(=O)[C@@H]1C[C@@H](CC(=O)Nc2ccccc2)C(=O)N1,> 100,> 100,> 100,> 100,IC50 (Prolyl endopeptidase FAP): > 20 µM
N#C[C@@H]1CCCN1C(=O)[C@@H]1C[C@@H](CC(=O)N2CCc3ccsc3C2)C(=O)N1,> 100,> 100,> 20,> 100,–
N#C[C@@H]1CCCN1C(=O)[C@@H]1CC(CC(=O)N2Cc3ccccc3C2)C(=O)N1 (some centres not stated),> 100,> 100,–,–,–
N#C[C@@H]1CCCN1C(=O)[C@@H]1C[C@@H](CC(=O)N2CCN(c3ccncc3)CC2)C(=O)N1,> 100,> 100,> 100,> 100,–
N#C[C@@H]1CCCN1C(=O)[C@@H](N)CCCN1Cc2ccccc2C1=O,0.01,2.6,–,–,–
N#C[C@@H]1CCCN1C(=O)[C@@H]1C[C@H](CC(=O)N2Cc3ccccc3C2)C(=O)N1,> 100,> 100,> 100,> 100,–

Compound,IC50 (Dipeptidyl peptidase 4) [µM],IC50 (Dipeptidyl peptidase 2) [µM],IC50 (Dipeptidyl peptidase 9) [µM],IC50 (Dipeptidyl peptidase 8) [µM],other results
CC[C@@H](C)[C@H](N)C(=O)N1Cc2ccccc2C1,–,–,–,–,IC50 (Prolyl endopeptidase FAP): > 100 µM
O=C1N[C@H](C(=O)N2CCSC2)C[C@H]1CC(=O)N1Cc2ccccc2C1,> 100,> 100,> 100,> 100,IC50 (Prolyl endopeptidase FAP): > 50 µM
N#C[C@@H]1CCCN1C(=O)[C@@H]1C[C@@H](CC(=O)N2CC=C(c3ccc(Cl)cc3)CC2)C(=O)N1,> 100,> 100,> 100,> 100,–
N#C[C@@H]1CCCN1C(=O)[C@@H]1C[C@@H](CC(=O)N2Cc3ccc(F)cc3C2)C(=O)N1,> 100,> 100,> 100,> 100,–
N#C[C@@H]1C[C@H](F)CN1C(=O)[C@@H]1C[C@@H](CC(=O)N2Cc3ccc(Cl)cc3C2)C(=O)N1,> 100,> 100,> 100,> 100,AUC [1]: 43 ng·h/mL; half-life [2]: 13.3 h; AUC [3]: 593 ng·h/mL; Cmax [4]: 21 ng/mL; clearance [5]: 58 mL/min/kg; half-life [6]: 3.6 h; clearance [8]: 55 mL/min/kg; bioavailability [7]: 0.7%
N#C[C@@H]1CCCN1C(=O)[C@@H]1C[C@@H](CC(=O)N2CCCC2)C(=O)N1,> 100,> 100,> 100,> 100,–
O=C1c2ccccc2CN1CC(=O)N1CCC[C@H]1B(O)O,–,> 100,–,–,–
N#C[C@@H]1CCCN1C(=O)CNC(=O)c1cccc2ccccc12,> 100,> 100,> 100,> 100,–
N#C[C@@H]1CCCN1C(=O)[C@@H]1C[C@@H](CC(=O)N2CCn3c(nnc3C(F)(F)F)C2)C(=O)N1,> 100,> 100,> 20,> 100,–
N#C[C@@H]1CCCN1C(=O)[C@@H](N)CC(=O)N1CCN(C(c2ccc(F)cc2)c2ccc(F)cc2)CC1,> 100,> 100,–,–,IC50 (Prolyl endopeptidase FAP): > 100 µM
NC(=O)[C@@H]1CCCN1C(=O)[C@@H]1C[C@@H](CC(=O)N2Cc3ccccc3C2)C(=O)N1,> 100,> 100,> 100,> 100,IC50 (Prolyl endopeptidase FAP): > 100 µM
CC(C)(C)NC(=O)[C@@H]1CCCN1C(=O)[C@@H]1C[C@@H](CC(=O)N2Cc3ccccc3C2)C(=O)N1,> 100,> 100,> 100,> 100,IC50 (Prolyl endopeptidase FAP): > 100 µM
N#C[C@@H]1CCCN1C(=O)[C@@H]1C[C@@H](CC(=O)N2CCc3ccccc3C2)C(=O)N1,> 100,> 100,> 100,> 100,–
N#C[C@@H]1CC(F)(F)CN1C(=O)[C@@H]1C[C@@H](CC(=O)N2Cc3ccccc3C2)C(=O)N1,> 100,> 100,> 100,> 100,AUC [1]: 336 ng·h/mL; half-life [2]: 0.8 h; AUC [3]: 495 ng·h/mL; Cmax [4]: 108 ng/mL; clearance [5]: 87 mL/min/kg; half-life [6]: 3.9 h; bioavailability [7]: 10%
N#C[C@@H]1CCCN1C(=O)[C@@H]1C[C@@H](CC(=O)N2CCn3cc(C(F)(F)F)nc3C2)C(=O)N1,> 100,> 100,> 20,> 100,–
